Measurements reported in US20240158412A1 (Faxian Therapeutics, LLC, priority 2021, published 2024).

biological target: USP7 (Homo sapiens, UniProt Q93009); experiment: biochemical
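Note: fluorescence intensity readout of USP7 enzymatic activity, reaction incubated 90 min at room temperature.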
Description: Example A. Biochemical Assay of USP7 Inhibitor Potency (IC50)
Fluorescence intensity assay of USP7 activity in the presence USP7 inhibitors. Recombinant USP7 protein (catalogue number E-519) and the fluorescence substrate ubiquitin-rhodamine 110 (Rh110) (catalogue number U-555) were purchased from Boston Biochem (840 Memorial Drive, Cambridge, MA 02139). The reaction was carried out in buffer 20 mM HEPES, pH 7.3, 150 mM NaCl, 1 mM TCEP, 125 μg/mL BSA at room temperature in a black 384-well Microplate (Greiner, catalog number 781076).
Test compounds were dissolved in DMSO to make 50 mM stock solution. […] In wells of a black 384-well Microplate, 15 μl of 100 pM of USP7 enzyme was added to each well with pre-diluted compounds and incubated at room temperature for 30 minutes, followed by addition of 10 μl of ubiquitin-rhodamine 110 (Rh110) substrate to reach 160 nM final concentration. The reaction mixtures were incubated for additional 90 minutes at room temperature. The fluorescence signal of the digested substrate was measured on an EnVision microplate reader (PerkinElmer,), using excitation at 485 nm and emission at 535 nm. The IC50 values were calculated using XLfit software.

USP7, sequence (Q93009 whole entry): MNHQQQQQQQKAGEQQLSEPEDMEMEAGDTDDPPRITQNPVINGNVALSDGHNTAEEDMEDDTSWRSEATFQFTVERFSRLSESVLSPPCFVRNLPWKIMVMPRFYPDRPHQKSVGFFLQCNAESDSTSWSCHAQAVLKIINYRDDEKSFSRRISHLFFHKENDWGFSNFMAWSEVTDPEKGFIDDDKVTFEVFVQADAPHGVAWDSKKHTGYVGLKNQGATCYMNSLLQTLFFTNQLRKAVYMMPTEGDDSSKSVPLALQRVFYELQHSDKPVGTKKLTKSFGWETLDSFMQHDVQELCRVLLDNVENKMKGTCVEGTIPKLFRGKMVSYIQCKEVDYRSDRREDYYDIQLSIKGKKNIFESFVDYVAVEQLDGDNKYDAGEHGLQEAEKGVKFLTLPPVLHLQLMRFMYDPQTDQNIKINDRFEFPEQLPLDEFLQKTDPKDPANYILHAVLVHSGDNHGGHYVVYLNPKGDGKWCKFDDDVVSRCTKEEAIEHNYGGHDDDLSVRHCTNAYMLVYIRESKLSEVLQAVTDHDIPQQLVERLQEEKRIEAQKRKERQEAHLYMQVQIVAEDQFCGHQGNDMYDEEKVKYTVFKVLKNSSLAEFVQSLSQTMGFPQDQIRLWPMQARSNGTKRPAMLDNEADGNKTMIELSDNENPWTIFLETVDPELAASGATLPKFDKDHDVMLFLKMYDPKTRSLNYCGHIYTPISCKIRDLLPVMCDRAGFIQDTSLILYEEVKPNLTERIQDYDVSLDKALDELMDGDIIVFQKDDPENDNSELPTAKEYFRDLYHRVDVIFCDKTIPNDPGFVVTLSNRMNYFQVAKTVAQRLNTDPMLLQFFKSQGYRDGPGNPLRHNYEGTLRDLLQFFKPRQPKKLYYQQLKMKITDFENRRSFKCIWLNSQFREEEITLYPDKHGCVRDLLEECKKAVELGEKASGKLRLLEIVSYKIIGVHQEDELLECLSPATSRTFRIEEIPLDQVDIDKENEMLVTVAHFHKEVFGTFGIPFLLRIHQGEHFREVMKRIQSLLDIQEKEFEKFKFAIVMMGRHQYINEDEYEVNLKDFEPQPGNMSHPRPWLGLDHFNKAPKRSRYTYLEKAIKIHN

IC50 [nM]	SMILES
< 10	N[C@H]1C[C@@H](N2CCCc3cc(Cl)cc(-c4ccnc5cc(CN6C(=O)CCC6=O)sc45)c32)C1 (single isomer, unassigned) [Example 42a, cis-1-((7-(1-(3-aminocyclobutyl)-6-chloro-1,2,3,4-tetrahydroquinolin-8-yl)thieno[3,2-b]pyridin-2-yl)methyl)pyrrolidine-2,5-dione]
10 to 100	N[C@H]1C[C@H](N2CCCc3cc(Cl)cc(-c4ccnc5cc(CN6C(=O)CCC6=O)sc45)c32)C1 (single isomer, unassigned) [Example 42b, trans-1-((7-(1-(3-aminocyclobutyl)-6-chloro-1,2,3,4-tetrahydroquinolin-8-yl)thieno[3,2-b]pyridin-2-yl)methyl)pyrrolidine-2,5-dione]
> 1000	O=C1CCC(=O)N1Cc1cc2nccc(-c3cc(Cl)cc4c3N(C3CNC3)C[C@@H]3C[C@H]43)c2s1 (single isomer, unassigned) [Example 43a]
10 to 100	O=C1CCC(=O)N1Cc1cc2nccc(-c3cc(Cl)cc4c3N(C3CNC3)C[C@H]3C[C@@H]43)c2s1 (single isomer, unassigned) [Example 43b]
10 to 100	C[C@H]1CCc2cc(Cl)cc(-c3ccnc4cc(CN5C(=O)CCC5=O)sc34)c2N1[C@@H]1CCNC1 (single isomer, unassigned) [Example 44a]
101 to 1000	C[C@H]1CCc2cc(Cl)cc(-c3ccnc4cc(CN5C(=O)CCC5=O)sc34)c2N1[C@H]1CCNC1 (single isomer, unassigned) [Example 44b]
10 to 100	C[C@@H]1CCc2cc(Cl)cc(-c3ccnc4cc(CN5C(=O)CCC5=O)sc34)c2N1[C@@H]1CCNC1 (single isomer, unassigned) [Example 44c]
< 10	O=C1CCC(=O)N1Cc1cc2nccc(-c3cc(Cl)cc4c3N([C@H]3CCCNCC3)CCC4)c2s1 (single isomer, unassigned) [Example 47a]
< 10	O=C1CCC(=O)N1Cc1cc2nccc(-c3cc(Cl)cc4c3N([C@@H]3CCCNCC3)CCC4)c2s1 (single isomer, unassigned) [Example 47b]
< 10	O=C1CCC(=O)N1Cc1cc2nccc(-c3cc(Cl)cc4c3N([C@H]3CCCNC3)CCC4)c2s1 (single isomer, unassigned) [Example 51a]
10 to 100	O=C1CCC(=O)N1Cc1cc2nccc(-c3cc(Cl)cc4c3N([C@@H]3CCCNC3)CCC4)c2s1 (single isomer, unassigned) [Example 51b]
< 10	O=C1CCC(=O)N1Cc1cc2nccc(-c3cc(Cl)cc4c3C(N3CCNCC3)CCO4)c2s1 (single isomer, unassigned) [Example 52b]
10 to 100	O=C1CCC(=O)N1Cc1cc2nccc(-c3cc(C(F)(F)F)cc4c3N([C@@H]3CCNC3)CCC4)c2s1 (single isomer, unassigned) [Example 78]
< 10	O=C1CCC(=O)N1Cc1cc2nccc(-c3cc(C(F)(F)F)cc4c3N([C@H]3CCNC3)CCC4)c2s1 (single isomer, unassigned) [Example 79]
10 to 100	O=c1ccn(CC(F)F)c(=O)n1Cc1cc2nccc(-c3cc(C(F)(F)F)cc4c3N([C@@H]3CCNC3)CCC4)c2s1 (single isomer, unassigned) [Example 80]
< 10	O=c1ccn(CC(F)(F)F)c(=O)n1Cc1cc2ncnc(-c3cc(Cl)cc4c3N([C@@H]3CCNC3)CCC4)c2s1 (single isomer, unassigned) [Example 90]
< 10	C[C@H]1C[C@@H](N2CCCc3cc(Cl)cc(-c4ccnc5cc(Cn6c(=O)ccn(CC(F)(F)F)c6=O)sc45)c32)CN1 (single isomer, unassigned) [Example 95a]
10 to 100	C[C@@H]1C[C@H](N2CCCc3cc(Cl)cc(-c4ccnc5cc(Cn6c(=O)ccn(CC(F)(F)F)c6=O)sc45)c32)CN1 (single isomer, unassigned) [Example 95b]
< 10	O=C1CCC(=O)N1Cc1cc2nccc(-c3cc(Cl)cc4c3N([C@H]3CNC[C@@H]3F)CCC4)c2s1 (single isomer, unassigned) [Example 96a]
10 to 100	O=C1CCC(=O)N1Cc1cc2nccc(-c3cc(Cl)cc4c3N([C@@H]3CNC[C@H]3F)CCC4)c2s1 (single isomer, unassigned) [Example 96b]
101 to 1000	CO[C@H]1CNC[C@@H]1N1CCCc2cc(Cl)cc(-c3ccnc4cc(CN5C(=O)CCC5=O)sc34)c21 (single isomer, unassigned) [Example 97a]
< 10	CO[C@@H]1CNC[C@H]1N1CCCc2cc(Cl)cc(-c3ccnc4cc(CN5C(=O)CCC5=O)sc34)c21 (single isomer, unassigned) [Example 97b]
101 to 1000	Cn1cc(Cc2cc3nccc(-c4cc(Cl)cc5c4N([C@@H]4CCNC4)CCC5)c3s2)nn1 (single isomer, unassigned) [Example 98]
10 to 100	Cn1cc(Cc2cc3nccc(-c4cc(Cl)cc5c4N([C@H]4CCNC4)CCC5)c3s2)nn1 (single isomer, unassigned) [Example 99]
< 10	N#Cc1cc2c(c(-c3ccnc4cc(Cn5c(=O)ccn(CC(F)(F)F)c5=O)sc34)c1)N([C@H]1CCN([C@@H]3CC[C@H]3O)C1)CCC2 (single isomer, unassigned) [Example 107a]
10 to 100	N#Cc1cc2c(c(-c3ccnc4cc(Cn5c(=O)ccn(CC(F)(F)F)c5=O)sc34)c1)N([C@H]1CCN([C@H]3CC[C@@H]3O)C1)CCC2 (single isomer, unassigned) [Example 107b]

IC50 [nM]	SMILES
< 10	O=C1CCC(=O)N1Cc1sc2c(-c3cc(Cl)cc4c3N(C3CCNC3)CCC4)ccnc2c1F (single isomer, unassigned) [Example 108a]
10 to 100	O=C1CCC(=O)N1Cc1sc2c(-c3cc(Cl)cc4c3N(C3CCNC3)CCC4)ccnc2c1F (single isomer, unassigned) [Example 108b]
10 to 100	O=C1CCC(=O)N1Cc1cc2nccc(-c3cccc4c3N([C@H]3CCNC3)CCO4)c2s1 (single isomer, unassigned) [Example 111a]
> 1000	O=C1CCC(=O)N1Cc1cc2nccc(-c3cccc4c3N([C@@H]3CCNC3)CCO4)c2s1 (single isomer, unassigned) [Example 111b]
10 to 100	C[C@H](c1cc2nccc(-c3cc(C#N)cc4c3N([C@H]3CCNC3)CCC4)c2s1)N1C(=O)CCC1=O (single isomer, unassigned) [Example 112a]
101 to 1000	C[C@@H](c1cc2nccc(-c3cc(C#N)cc4c3N([C@H]3CCNC3)CCC4)c2s1)N1C(=O)CCC1=O (single isomer, unassigned) [Example 112b]
101 to 1000	C[C@H](c1cc2nccc(-c3cc(C#N)cc4c3N([C@@H]3CCNC3)CCC4)c2s1)N1C(=O)CCC1=O (single isomer, unassigned) [Example 112c]
> 1000	C[C@@H](c1cc2nccc(-c3cc(C#N)cc4c3N([C@@H]3CCNC3)CCC4)c2s1)N1C(=O)CCC1=O (single isomer, unassigned) [Example 112d]
101 to 1000	O=C1CCC(=O)N1Cc1cc2nccc(-c3cc(Cl)cc4c3N([C@@H]3CCNC3)CC3CC43)c2s1 (single isomer, unassigned) [Example 113a]
10 to 100	O=C1CCC(=O)N1Cc1cc2nccc(-c3cc(Cl)cc4c3N([C@@H]3CCNC3)CC3CC43)c2s1 (single isomer, unassigned) [Example 113b]
10 to 100	O=C1CCC(=O)N1Cc1cc2nccc(-c3cc(Cl)cc4c3N(C3CCNC3)C[C@@H]3C[C@H]43)c2s1 (single isomer, unassigned) [Example 113c]
< 10	O=C1CCC(=O)N1Cc1cc2nccc(-c3cc(Cl)cc4c3N([C@H]3CCNC3)C[C@H]3C[C@@H]43)c2s1 (single isomer, unassigned) [Example 113d]
10 to 100	CC1(C)C[C@@H](N2CCCc3cc(Cl)cc(-c4ccnc5cc(Cn6c(=O)ccn(CC(F)(F)F)c6=O)sc45)c32)CN1 (single isomer, unassigned) [Example 118a]
< 10	CC1(C)C[C@H](N2CCCc3cc(Cl)cc(-c4ccnc5cc(Cn6c(=O)ccn(CC(F)(F)F)c6=O)sc45)c32)CN1 (single isomer, unassigned) [Example 118b]
< 10	Cc1cnn(Cc2cc3nccc(-c4cc(C#N)cc5c4N(C4CNC(C)(C)C4)CCC5)c3s2)c(=O)c1 (single isomer, unassigned) [Example 120a]
101 to 1000	Cc1cnn(Cc2cc3nccc(-c4cc(C#N)cc5c4N(C4CNC(C)(C)C4)CCC5)c3s2)c(=O)c1 (single isomer, unassigned) [Example 120b]
< 10	CC1(C)CC(N2CCOc3cc(C#N)cc(-c4ccnc5cc(Cn6c(=O)ccn(CC(F)(F)F)c6=O)sc45)c32)CN1 (single isomer, unassigned) [Example 133a]
101 to 1000	CC1(C)CC(N2CCOc3cc(C#N)cc(-c4ccnc5cc(Cn6c(=O)ccn(CC(F)(F)F)c6=O)sc45)c32)CN1 (single isomer, unassigned) [Example 133b]
10 to 100	O=C1CCC(=O)N1Cc1cc2nccc(-c3cc(Cl)cc4c3N([C@H]3CNC5(CCC5)C3)CCC4)c2s1 (single isomer, unassigned) [Example 139a]
< 10	O=C1CCC(=O)N1Cc1cc2nccc(-c3cc(Cl)cc4c3N([C@@H]3CNC5(CCC5)C3)CCC4)c2s1 (single isomer, unassigned) [Example 139b]
10 to 100	O=C1CCC(=O)N1Cc1cc2nccc(-c3cc(Cl)cc4c3N([C@@H]3CN(C[C@H](O)C(F)(F)F)C5(CCC5)C3)CCC4)c2s1 (single isomer, unassigned) [Example 143a]
101 to 1000	O=C1CCC(=O)N1Cc1cc2nccc(-c3cc(Cl)cc4c3N([C@@H]3CN(C[C@@H](O)C(F)(F)F)C5(CCC5)C3)CCC4)c2s1 (single isomer, unassigned) [Example 143b]
< 10	O=C1CCC(=O)N1Cc1cc2ncnc(-c3cc(Cl)cc4c3N(C3CNC5(CCC5)C3)CCC4)c2s1 (single isomer, unassigned) [Example 161a]
101 to 1000	O=C1CCC(=O)N1Cc1cc2ncnc(-c3cc(Cl)cc4c3N(C3CNC5(CCC5)C3)CCC4)c2s1 (single isomer, unassigned) [Example 161b]
< 10	O=c1ccn(C2CC2)c(=O)n1Cc1cc2nccc(-c3cc(C(F)(F)F)cc4c3N(C3CNC5(CCC5)C3)CCC4)c2s1 (single isomer, unassigned) [Example 162a]
